Assay results as given in patent US11572369B2, “Bicyclic pyridine compositions and methods of using the same for cancer therapy” (UNIVERSITY OF SOUTH CAROLINA, priority 2019, dated 2023).

What was measured:
Experiment in all cases: KINOMEscan
Type in all cases: binding
Conditions in all cases: 2000 nM
[1] = molecular target: ABL1-phosphorylated (Homo sapiens, UniProt P00519)
[2] = molecular target: T1, AKT2 (Homo sapiens, UniProt P31751)
T1 construct: purchased DiscoveRx (KINOMEscan scanMAX panel, service)

[3] = molecular target: T2, AKT3 (Homo sapiens, UniProt Q9Y243)
T2 construct: purchased DiscoveRx (KINOMEscan scanMAX panel, service)

[4] = molecular target: T3, ALK (Homo sapiens, UniProt Q9UM73)
T3 construct: purchased DiscoveRx (KINOMEscan scanMAX panel, service)

[5] = molecular target: T4, CAMK1D (Homo sapiens, UniProt Q8IU85)
T4 construct: DNA label (qPCR read-out); purchased KINOMEscan (ScanMAX panel service)

[6] = molecular target: T5, CDK3 (Homo sapiens, UniProt Q00526)
T5 construct: purchased DiscoverX (KINOMEscan service)

[7] = molecular target: T6, CSF1R (Homo sapiens, UniProt P07333)
T6 construct: DNA label (for qPCR read-out); purchased DiscoveRx (KINOMEscan scanMAX service)

[8] = molecular target: T7, DDR1 (Homo sapiens, UniProt Q08345)
T7 construct: DNA label (qPCR read-out); purchased KINOMEscan (DiscoveRx) panel

[9] = molecular target: T8, EGFR(L747-E749del, A750P) (Homo sapiens, UniProt P00533, A750P/DEL747-749)
T8 construct: purchased DiscoveRx (KINOMEscan scanMAX panel)

[10] = molecular target: T9, EGFR(L858R) (Homo sapiens, UniProt P00533, L858R)
T9 construct: purchased DiscoveRx (KINOMEscan scanMAX panel)

[11] = molecular target: T10, EGFR(T790M) (Homo sapiens, UniProt P00533, T790M)
T10 construct: purchased DiscoveRx (KINOMEscan scanMAX panel)

[12] = molecular target: T11, EPHA4 (Homo sapiens, UniProt P54764)
T11 construct: purchased DiscoveRx (KINOMEscan scanMAX panel)

[13] = molecular target: T12, ERBB4 (Homo sapiens, UniProt Q15303)
T12 construct: DNA label (qPCR read-out); purchased DiscoveRx (KINOMEscan ScanMAX panel)

[14] = molecular target: T13, FGFR2 (Homo sapiens, UniProt P21802)
T13 construct: purchased DiscoveRx (KINOMEscan scanMAX panel)
T13 sequence (P21802 22-821): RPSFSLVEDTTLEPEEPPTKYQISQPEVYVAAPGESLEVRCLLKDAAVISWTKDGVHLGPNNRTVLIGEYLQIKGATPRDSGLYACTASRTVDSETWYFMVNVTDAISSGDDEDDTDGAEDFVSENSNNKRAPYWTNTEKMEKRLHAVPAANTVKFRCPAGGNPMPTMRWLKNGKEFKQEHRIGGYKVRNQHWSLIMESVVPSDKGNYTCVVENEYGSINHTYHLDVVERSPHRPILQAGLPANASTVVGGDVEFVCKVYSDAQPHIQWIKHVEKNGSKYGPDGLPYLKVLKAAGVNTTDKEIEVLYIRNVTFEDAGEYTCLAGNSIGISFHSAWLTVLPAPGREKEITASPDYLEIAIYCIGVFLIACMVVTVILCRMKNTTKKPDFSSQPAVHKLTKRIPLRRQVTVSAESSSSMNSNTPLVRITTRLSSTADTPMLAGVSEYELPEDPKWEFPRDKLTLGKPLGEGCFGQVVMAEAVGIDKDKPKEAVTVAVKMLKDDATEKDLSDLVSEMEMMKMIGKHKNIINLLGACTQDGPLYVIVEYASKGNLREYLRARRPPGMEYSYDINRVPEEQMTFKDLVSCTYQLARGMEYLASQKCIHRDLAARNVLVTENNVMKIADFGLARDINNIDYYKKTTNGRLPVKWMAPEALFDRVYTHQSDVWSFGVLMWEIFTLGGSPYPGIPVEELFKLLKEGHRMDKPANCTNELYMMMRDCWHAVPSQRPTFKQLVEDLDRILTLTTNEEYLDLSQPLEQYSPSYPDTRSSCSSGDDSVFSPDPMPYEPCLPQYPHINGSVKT

[15] = molecular target: T14, FLT3(D835Y) (Homo sapiens, UniProt P36888, D835Y)
T14 construct: purchased DiscoveRx (KINOMEscan scanMAX panel)

[16] = molecular target: T15, GRK7 (Homo sapiens, UniProt Q8WTQ7)
T15 construct: DNA label (for qPCR read-out); purchased DiscoveRx (KINOMEscan scanMAX panel, contract assay)

[17] = molecular target: T16, GSK3A (Homo sapiens, UniProt P49840)
T16 construct: DNA label (qPCR read-out); purchased DiscoverX (assay service)
T16 sequence (P49840 whole entry): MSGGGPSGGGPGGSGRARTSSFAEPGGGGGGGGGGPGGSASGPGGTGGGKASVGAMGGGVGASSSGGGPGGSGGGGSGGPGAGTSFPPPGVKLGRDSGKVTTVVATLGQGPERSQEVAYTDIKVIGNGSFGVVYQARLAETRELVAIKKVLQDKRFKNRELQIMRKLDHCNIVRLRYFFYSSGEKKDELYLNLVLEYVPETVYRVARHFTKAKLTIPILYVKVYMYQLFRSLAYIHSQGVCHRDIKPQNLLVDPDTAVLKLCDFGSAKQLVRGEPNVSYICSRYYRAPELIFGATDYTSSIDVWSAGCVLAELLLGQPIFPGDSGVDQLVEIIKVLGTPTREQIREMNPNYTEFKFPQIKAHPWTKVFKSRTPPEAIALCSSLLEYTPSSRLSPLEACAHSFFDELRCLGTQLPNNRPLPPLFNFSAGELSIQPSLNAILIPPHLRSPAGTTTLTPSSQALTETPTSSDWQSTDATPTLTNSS

[18] = molecular target: T17, KIT(A829P) (Homo sapiens, UniProt P10721, A829P)
T17 construct: DNA label (for qPCR read-out); purchased DiscoveRx (KINOMEscan scanMAX panel)

[19] = molecular target: T18, MUSK (Homo sapiens, UniProt O15146)
T18 construct: DNA label (for qPCR read-out); purchased KINOMEscan scanMAX panel (DiscoveRx)

[20] = molecular target: T19, PAK3 (Homo sapiens, UniProt O75914)
T19 construct: purchased DiscoverX (KINOMEscan service)

[21] = molecular target: T20, PDGFRB (Homo sapiens, UniProt P09619)
T20 construct: DNA label (for qPCR read-out); purchased DiscoveRx (KINOMEscan scanMAX service)

[22] = molecular target: T21, PIK3CA(H1047L) (Homo sapiens, UniProt P42336, H1047L)
T21 construct: DNA label; purchased DiscoveRx (KINOMEscan scanMAX panel)

[23] = molecular target: T22, PRKCD (Homo sapiens, UniProt Q05655)
T22 construct: purchased DiscoveRx (KINOMEscan scanMAX panel)

[24] = molecular target: T23, PRKCQ (Homo sapiens, UniProt Q04759)
T23 construct: purchased DiscoveRx (KINOMEscan scanMAX panel)
T23 sequence (Q04759 whole entry): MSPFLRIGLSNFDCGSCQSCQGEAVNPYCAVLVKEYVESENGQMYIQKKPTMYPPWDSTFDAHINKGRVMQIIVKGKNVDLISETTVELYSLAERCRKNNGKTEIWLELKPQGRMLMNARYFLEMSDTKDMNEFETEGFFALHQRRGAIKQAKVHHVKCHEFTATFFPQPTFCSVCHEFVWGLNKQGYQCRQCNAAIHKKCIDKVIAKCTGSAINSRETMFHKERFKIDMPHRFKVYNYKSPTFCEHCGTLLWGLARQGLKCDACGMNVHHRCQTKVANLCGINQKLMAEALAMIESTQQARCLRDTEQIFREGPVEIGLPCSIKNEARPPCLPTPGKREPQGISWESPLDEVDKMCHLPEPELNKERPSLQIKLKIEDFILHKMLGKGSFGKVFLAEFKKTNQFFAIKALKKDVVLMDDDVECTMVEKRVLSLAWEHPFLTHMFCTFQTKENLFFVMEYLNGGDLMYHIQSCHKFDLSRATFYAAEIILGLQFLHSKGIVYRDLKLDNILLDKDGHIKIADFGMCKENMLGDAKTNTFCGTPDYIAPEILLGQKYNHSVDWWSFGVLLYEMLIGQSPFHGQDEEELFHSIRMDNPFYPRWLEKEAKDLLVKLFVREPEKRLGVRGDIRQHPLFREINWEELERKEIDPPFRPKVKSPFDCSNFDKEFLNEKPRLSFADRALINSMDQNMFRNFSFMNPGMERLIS

[25] = molecular target: T24, PRKG1 (Homo sapiens, UniProt Q13976)
T24 construct: purchased DiscoveRx (KINOMEscan scanMAX panel)
T24 sequence (Q13976 whole entry): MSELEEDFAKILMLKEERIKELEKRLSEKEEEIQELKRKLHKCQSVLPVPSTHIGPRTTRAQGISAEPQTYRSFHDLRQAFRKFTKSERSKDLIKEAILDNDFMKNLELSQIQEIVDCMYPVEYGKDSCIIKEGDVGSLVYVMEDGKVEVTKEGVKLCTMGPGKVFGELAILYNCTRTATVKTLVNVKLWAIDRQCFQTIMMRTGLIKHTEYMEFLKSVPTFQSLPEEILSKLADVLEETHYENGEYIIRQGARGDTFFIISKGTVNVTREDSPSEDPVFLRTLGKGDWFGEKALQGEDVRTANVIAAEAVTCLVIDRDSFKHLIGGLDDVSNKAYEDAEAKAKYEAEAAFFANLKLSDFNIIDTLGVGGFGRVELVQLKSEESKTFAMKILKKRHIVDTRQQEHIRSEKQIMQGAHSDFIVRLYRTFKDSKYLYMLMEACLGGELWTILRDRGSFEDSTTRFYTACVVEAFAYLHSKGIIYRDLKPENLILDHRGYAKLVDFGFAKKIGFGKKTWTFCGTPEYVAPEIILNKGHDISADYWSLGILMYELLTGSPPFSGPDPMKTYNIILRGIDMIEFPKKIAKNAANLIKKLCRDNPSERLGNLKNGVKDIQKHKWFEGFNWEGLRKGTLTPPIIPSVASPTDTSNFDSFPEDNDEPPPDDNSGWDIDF

[26] = molecular target: T25, PYK2 (Homo sapiens, UniProt Q14289)
T25 construct: purchased DiscoveRx (KINOMEscan scanMAX panel)

[27] = molecular target: T26, RIPK4 (Homo sapiens, UniProt P57078)
T26 construct: DNA label (qPCR read-out); purchased DiscoveRx (KINOMEscan ScanMAX panel)
T26 sequence (P57078 whole entry): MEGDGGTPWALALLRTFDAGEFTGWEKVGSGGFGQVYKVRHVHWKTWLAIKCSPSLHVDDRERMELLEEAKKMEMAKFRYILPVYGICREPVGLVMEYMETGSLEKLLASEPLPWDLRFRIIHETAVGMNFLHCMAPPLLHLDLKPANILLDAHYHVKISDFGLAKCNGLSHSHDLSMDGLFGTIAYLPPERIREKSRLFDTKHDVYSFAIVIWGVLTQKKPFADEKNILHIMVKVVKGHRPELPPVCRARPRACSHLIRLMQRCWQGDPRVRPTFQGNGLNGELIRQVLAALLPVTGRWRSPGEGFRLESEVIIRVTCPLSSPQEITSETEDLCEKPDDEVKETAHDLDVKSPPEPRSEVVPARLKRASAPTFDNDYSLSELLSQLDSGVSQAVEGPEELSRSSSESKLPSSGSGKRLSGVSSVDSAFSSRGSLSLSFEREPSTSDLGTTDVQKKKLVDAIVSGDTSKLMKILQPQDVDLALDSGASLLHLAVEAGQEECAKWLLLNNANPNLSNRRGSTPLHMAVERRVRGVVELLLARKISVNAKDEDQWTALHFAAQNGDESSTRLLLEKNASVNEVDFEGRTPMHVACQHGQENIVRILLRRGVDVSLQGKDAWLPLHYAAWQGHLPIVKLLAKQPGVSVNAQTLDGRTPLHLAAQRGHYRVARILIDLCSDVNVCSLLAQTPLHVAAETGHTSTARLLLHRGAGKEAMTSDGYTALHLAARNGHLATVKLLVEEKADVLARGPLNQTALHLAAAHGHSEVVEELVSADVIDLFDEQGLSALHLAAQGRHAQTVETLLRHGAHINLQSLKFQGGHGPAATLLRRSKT

[28] = molecular target: T27, RPS6KA5(Kin.Dom.2-C-terminal) (Homo sapiens, UniProt O75582)
T27 construct: RPS6KA5(Kin.Dom.2); purchased DiscoveRx (KINOMEscan scanMAX panel)

[29] = molecular target: T28, STK33 (Homo sapiens, UniProt Q9BYT3)
T28 construct: DNA label (for qPCR read-out); purchased DiscoveRx (KINOMEscan scanMAX panel, contract assay)

[30] = molecular target: T29, STK35 (Homo sapiens, UniProt Q8TDR2)
T29 construct: DNA label (for qPCR read-out); purchased DiscoveRx (KINOMEscan scanMAX panel, contract assay)

[31] = molecular target: T30, TRKC (Homo sapiens, UniProt Q16288)
T30 construct: DNA label (qPCR read-out); purchased KINOMEscan (DiscoveRx) ScanMAX panel

[32] = molecular target: T31, TSSK1B (Homo sapiens, UniProt Q9BXA7)
T31 construct: DNA label (for qPCR read-out); purchased DiscoveRx (KINOMEscan scanMAX panel)
T31 sequence (Q9BXA7 whole entry): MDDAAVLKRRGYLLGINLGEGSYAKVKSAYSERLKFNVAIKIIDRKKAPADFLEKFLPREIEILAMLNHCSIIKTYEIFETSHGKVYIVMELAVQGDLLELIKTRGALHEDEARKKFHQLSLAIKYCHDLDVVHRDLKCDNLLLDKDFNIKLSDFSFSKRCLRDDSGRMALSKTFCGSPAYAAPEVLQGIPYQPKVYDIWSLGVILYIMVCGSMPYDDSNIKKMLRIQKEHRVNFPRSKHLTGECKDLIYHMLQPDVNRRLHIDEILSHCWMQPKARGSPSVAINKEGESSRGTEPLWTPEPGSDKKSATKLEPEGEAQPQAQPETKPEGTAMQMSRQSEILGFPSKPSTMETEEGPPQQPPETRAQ

[33] = molecular target: T32, TXK (Homo sapiens, UniProt P42681)
T32 construct: DNA label (for qPCR read-out); purchased DiscoveRx (KINOMEscan scanMAX panel)

[34] = molecular target: T33, TYRO3 (Homo sapiens, UniProt Q06418)
T33 construct: DNA label (for qPCR read-out); purchased DiscoveRx (KINOMEscan scanMAX panel)

[35] = molecular target: T34, WNK1 (Homo sapiens, UniProt Q9H4A3)
T34 construct: purchased KINOMEscan (DiscoveRx) panel service

ABL1-phosphorylated, sequence (P00519 whole entry): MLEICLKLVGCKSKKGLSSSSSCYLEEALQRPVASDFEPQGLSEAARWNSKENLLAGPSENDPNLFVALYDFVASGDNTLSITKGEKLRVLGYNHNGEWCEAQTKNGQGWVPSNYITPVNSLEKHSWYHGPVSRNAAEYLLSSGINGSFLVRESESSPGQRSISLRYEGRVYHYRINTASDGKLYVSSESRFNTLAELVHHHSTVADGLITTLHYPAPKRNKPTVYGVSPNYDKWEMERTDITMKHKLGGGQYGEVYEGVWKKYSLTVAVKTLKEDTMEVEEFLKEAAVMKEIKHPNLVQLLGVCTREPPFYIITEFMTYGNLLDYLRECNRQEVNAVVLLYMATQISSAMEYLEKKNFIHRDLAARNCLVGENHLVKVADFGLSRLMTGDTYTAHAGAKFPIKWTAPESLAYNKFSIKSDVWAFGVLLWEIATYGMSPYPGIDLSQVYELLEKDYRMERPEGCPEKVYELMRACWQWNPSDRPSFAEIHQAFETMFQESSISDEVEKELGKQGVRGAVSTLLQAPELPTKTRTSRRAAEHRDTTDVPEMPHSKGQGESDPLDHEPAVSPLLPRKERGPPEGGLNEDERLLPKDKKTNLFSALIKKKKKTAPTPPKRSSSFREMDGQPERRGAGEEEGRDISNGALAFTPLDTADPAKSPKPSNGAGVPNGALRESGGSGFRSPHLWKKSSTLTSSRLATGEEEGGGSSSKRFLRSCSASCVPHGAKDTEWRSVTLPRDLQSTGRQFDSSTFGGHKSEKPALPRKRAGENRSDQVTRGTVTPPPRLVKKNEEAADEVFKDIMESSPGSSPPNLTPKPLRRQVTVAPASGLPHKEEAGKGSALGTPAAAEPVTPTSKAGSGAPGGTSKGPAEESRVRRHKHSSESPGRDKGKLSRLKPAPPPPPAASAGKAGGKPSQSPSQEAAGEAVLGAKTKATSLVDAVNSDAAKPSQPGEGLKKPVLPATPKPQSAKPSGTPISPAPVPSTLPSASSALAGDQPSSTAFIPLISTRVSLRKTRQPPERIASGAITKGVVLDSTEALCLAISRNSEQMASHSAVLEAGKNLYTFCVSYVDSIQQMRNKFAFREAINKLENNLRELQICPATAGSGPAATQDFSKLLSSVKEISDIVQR

SMILES | % Ctrl [1] | % Ctrl [2] | % Ctrl [3] | % Ctrl [4] | % Ctrl [5] | % Ctrl [6] | % Ctrl [7] | % Ctrl [8] | % Ctrl [9] | % Ctrl [10] | % Ctrl [11] | % Ctrl [12] | % Ctrl [13] | % Ctrl [14] | % Ctrl [15] | % Ctrl [16] | % Ctrl [17] | % Ctrl [18] | % Ctrl [19] | % Ctrl [20] | also measured
[2H]C([2H])([2H])N(C(=O)c1ccc(N2CCCN(c3ccnc4sc(C(N)=O)c(N)c34)CC2)cc1)C([2H])([2H])[2H] [15u_D6, 3-amino-4-(4-(4-(bis(methyl-d3)carbamoyl)phenyl)-1,4-diazepan-1-yl)thieno[2,3-b]pyridine-2-carboxamide] | 77 % Ctrl | 99 % Ctrl | 100 % Ctrl | 78 % Ctrl | 93 % Ctrl | 97 % Ctrl | 95 % Ctrl | 90 % Ctrl | 100 % Ctrl | 93 % Ctrl | 87 % Ctrl | 100 % Ctrl | 100 % Ctrl | 98 % Ctrl | 100 % Ctrl | 92 % Ctrl | 34 % Ctrl | 51 % Ctrl | 82 % Ctrl | 40 % Ctrl | % Ctrl [21]: 93 % Ctrl; % Ctrl [22]: 80 % Ctrl; % Ctrl [23]: 92 % Ctrl; % Ctrl [24]: 87 % Ctrl; % Ctrl [25]: 100 % Ctrl; % Ctrl [26]: 84 % Ctrl; % Ctrl [27]: 68 % Ctrl; % Ctrl [28]: 100 % Ctrl; % Ctrl [29]: 100 % Ctrl; % Ctrl [30]: 93 % Ctrl; % Ctrl [31]: 85 % Ctrl; % Ctrl [32]: 99 % Ctrl; % Ctrl [33]: 100 % Ctrl; % Ctrl [34]: 100 % Ctrl; % Ctrl [35]: 93 % Ctrl
CN(C)C(=O)c1ccc(N2CCCN(c3ccnc4sc(C(N)=O)c(N)c34)CC2)cc1 [15u, 3-amino-4-(4-(4-(dimethylcarbamoyl)phenyl)-1,4-diazepan-1-yl)thieno[2,3-b]pyridine-2-carboxamide] | 90 % Ctrl | 86 % Ctrl | 97 % Ctrl | 81 % Ctrl | 87 % Ctrl | 92 % Ctrl | 98 % Ctrl | 82 % Ctrl | 99 % Ctrl | 99 % Ctrl | 98 % Ctrl | 100 % Ctrl | 85 % Ctrl | 99 % Ctrl | 46 % Ctrl | 100 % Ctrl | 31 % Ctrl | 97 % Ctrl | 94 % Ctrl | 80 % Ctrl | % Ctrl [21]: 100 % Ctrl; % Ctrl [22]: 94 % Ctrl; % Ctrl [23]: 100 % Ctrl; % Ctrl [24]: 90 % Ctrl; % Ctrl [25]: 88 % Ctrl; % Ctrl [26]: 97 % Ctrl; % Ctrl [27]: 89 % Ctrl; % Ctrl [28]: 95 % Ctrl; % Ctrl [29]: 100 % Ctrl; % Ctrl [30]: 87 % Ctrl; % Ctrl [31]: 91 % Ctrl; % Ctrl [32]: 80 % Ctrl; % Ctrl [33]: 93 % Ctrl; % Ctrl [34]: 100 % Ctrl; % Ctrl [35]: 100 % Ctrl
